The assay concerns the target T1, 5-lipoxygenase (isolated human leukocytes) (Homo sapiens, UniProt P09917).
T1 construct: 5-Lipoxygenase Assay Using Isolated Human Leukocytes (5LOA2); endogenous in cells; host or cells: isolated human blood leukocytes, platelets removed
T1 sequence (P09917 1-674): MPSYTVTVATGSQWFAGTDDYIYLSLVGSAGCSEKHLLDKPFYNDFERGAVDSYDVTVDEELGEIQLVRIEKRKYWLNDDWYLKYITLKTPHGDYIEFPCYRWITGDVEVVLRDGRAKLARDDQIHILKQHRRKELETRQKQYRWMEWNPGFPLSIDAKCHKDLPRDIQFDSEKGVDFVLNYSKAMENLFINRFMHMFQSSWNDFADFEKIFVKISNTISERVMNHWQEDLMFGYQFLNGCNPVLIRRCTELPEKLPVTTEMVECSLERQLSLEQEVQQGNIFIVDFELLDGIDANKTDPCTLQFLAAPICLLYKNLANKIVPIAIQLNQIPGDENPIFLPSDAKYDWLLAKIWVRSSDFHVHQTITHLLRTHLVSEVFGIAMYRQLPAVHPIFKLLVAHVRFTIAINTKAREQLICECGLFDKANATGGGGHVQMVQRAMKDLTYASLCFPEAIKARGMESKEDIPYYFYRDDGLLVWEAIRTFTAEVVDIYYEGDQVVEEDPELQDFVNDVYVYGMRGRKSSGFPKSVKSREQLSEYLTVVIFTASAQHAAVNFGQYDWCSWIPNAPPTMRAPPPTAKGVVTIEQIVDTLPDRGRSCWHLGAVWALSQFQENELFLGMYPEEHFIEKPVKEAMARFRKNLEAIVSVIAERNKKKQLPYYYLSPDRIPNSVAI
Kind of assay: 5-Lipoxygenase Assay Using Isolated Human Leukocytes (5LOA2). It is filed as cell-based. The protocol:
5-Lipoxygenase Assay Using Isolated Human Leukocytes (5LOA2)
The formation of 5-HETE in human leukocytes is considered a measure of 5-lipoxygenase activity. The protocol is described in the following.
Fresh heparinized or EDTA treated human blood is mixed with 6% dextran-3% dextrose in isotonic saline in the ratio 0.25 ml dextran solution per 1.0 ml blood. After mixing the blood is allowed to sit at room temperature for about 90 minutes while the RBC's settle. During this period, the plasma is removed with a plastic pipette to nalgens tubes.
The plasma is centrifuged at 800 rpm ([…]) on the Beckman Td-b refrigerated centrifuge to remove the platelets (which remain in the supernatant). The pellet, consisting of leukocytes and erythrocytes, is treated with 10 ml 0.87% ammonium chloride at room temperature for four minutes, lysing the red cells. At the end of four minutes the cells are diluted with a 2×volume of phosphate buffered saline, pH 7.4, and centrifuged for ten minutes. The cells are washed three times with the phosphate buffered saline. Any of the pelleted cell matter which is not easily resuspended is discarded during the washings --the material contains platelets (12-lipoxygenase activity).
After washing, the cells are resuspended in phosphate buffered saline containing 1.0 mM calcium and 0.5 mM magnesium. After counting the cells are diluted to 1.5-2.0×10^7 leukocytes per milliliter.
To each polypropylene reaction tube is added 0.48 ml leukocytes in Ca-Mg phosphate buffered saline, pH 7.4; 1-5 μl test compound dissolved in DMSO and buffer; or DMSO for control tubes.
The tubes preincubate at 37° C. for five minutes. […]
A portion of the ethanol solution is injected into the HPLC system for 5-HETE quantitation.
The HPLC system consists of Hewlett-Packard 1040A UV spectrophotometry system with an HP85 computer. […] Peaks are measured with a Hewlett Packard 3360A integrator. […] The flow is monitored at 235 nm for 5-HETE quatitation. […]

Structures are written as SMILES.

Regarding `O=C(Nc1ccc(CCc2ccc(Cl)c(Cl)c2)cc1)c1ccccc1O` [Example 42], the “% Inhibition (5LOA2)” value by setting is: (5LOA2, 2.00 E -5 M) 30.9%; (5LOA2, 5.00 E -6 M) 21.1%.

For the origin of these results see patent publication US4939133A, “N-substituted-2-hydroxy-α-oxo-benzeneacetamides and pharmaceutical compositions having activity as modulators of the arachidonic acid cascade” (Warner-Lambert Company, priority 1985, dated 1990).
